Data taken from patent publication US20260265238A1, “COMPOUNDS AND PHARMACEUTICAL COMPOSITIONS THAT DEGRADE SWI/SNF-RELATED MATRIX-ASSOCIATED ACTIN-DEPENDENT REGULATOR OF CHROMATIN SUBFAMILY A” (Plexium, Inc., priority 2023, published 2026).

Assays:
[1] = biological target: T1, SMARCA2-HiBiT HeLa cells (protein which is expressed from the SMARCA2 gene) (Homo sapiens, UniProt P51531); assay: SMARCA2 degradation assay (HiBiT-fusion HeLa cell line, 24 h, luminescence); assay type: cell-based
T1 construct: protein which is expressed from the SMARCA2 and SMARCA4 genes; host or cells: HeLa (SMARCA2-HiBiT engineered line)
Outline: (§1)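 HiBiT-fusion HeLa lines, 8,000 cells/well, overnight attachment; cpd 10-pt series (typically 10 μM–300 pM), 24 h, 37° C. Lysis with LgBiT + HiBiT substrate, 10 min shaking at RT, luminescence read. DC50 from dose-response fit; % degradation also scored at 1 μM.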

[2] = biological target: T2, SMARCA4-HiBiT HeLa cells (protein which is expressed from the SMARCA4 gene) (Homo sapiens, UniProt P51532); assay: SMARCA4 degradation assay (HiBiT-fusion HeLa cell line, 24 h, luminescence); assay type: cell-based
T2 construct: protein which is expressed from the SMARCA2 and SMARCA4 genes; host or cells: HeLa (SMARCA4-HiBiT engineered line)
Outline: as §1

T2 sequence (P51532 whole entry, the tested form may be a part): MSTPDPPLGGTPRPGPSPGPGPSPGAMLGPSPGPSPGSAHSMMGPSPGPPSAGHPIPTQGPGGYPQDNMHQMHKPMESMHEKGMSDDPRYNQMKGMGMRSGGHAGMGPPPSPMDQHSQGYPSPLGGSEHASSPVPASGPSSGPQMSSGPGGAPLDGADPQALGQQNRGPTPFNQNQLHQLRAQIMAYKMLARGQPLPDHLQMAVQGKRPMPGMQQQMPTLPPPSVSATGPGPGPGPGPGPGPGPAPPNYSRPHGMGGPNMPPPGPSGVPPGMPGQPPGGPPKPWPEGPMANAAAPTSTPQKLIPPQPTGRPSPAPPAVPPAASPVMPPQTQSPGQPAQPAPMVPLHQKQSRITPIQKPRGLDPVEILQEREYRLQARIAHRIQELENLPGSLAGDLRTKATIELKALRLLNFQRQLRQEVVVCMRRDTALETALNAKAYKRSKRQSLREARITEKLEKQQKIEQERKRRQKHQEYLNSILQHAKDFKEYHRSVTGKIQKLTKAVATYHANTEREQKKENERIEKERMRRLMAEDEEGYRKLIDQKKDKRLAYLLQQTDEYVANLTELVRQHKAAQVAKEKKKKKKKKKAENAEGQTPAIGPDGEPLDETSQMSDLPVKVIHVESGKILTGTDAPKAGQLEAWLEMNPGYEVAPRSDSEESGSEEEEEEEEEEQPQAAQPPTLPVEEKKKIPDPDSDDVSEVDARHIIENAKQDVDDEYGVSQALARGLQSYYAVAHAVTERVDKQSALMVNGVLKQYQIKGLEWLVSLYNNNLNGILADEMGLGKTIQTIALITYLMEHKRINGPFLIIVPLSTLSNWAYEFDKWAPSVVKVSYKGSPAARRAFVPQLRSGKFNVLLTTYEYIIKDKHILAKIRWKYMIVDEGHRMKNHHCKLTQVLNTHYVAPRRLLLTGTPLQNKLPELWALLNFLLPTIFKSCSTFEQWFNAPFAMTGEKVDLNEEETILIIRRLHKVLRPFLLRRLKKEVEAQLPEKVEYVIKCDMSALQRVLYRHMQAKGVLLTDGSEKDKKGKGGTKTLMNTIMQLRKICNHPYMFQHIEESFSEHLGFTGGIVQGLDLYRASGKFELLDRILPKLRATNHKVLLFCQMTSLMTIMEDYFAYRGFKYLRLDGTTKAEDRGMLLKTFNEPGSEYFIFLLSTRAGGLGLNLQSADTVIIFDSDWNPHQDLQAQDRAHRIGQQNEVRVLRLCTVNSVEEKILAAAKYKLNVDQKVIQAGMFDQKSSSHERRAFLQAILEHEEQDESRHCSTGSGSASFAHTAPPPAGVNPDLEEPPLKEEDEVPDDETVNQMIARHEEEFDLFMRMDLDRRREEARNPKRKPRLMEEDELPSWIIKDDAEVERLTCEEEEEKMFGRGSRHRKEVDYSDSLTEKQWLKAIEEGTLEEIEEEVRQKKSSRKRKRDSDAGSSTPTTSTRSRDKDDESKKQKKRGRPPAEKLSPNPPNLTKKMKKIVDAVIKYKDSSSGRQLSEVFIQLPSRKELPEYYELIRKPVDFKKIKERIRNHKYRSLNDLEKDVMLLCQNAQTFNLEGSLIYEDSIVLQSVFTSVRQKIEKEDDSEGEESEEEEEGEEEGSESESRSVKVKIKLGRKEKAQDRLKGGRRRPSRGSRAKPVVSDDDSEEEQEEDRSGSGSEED
T1 sequence (P51531 whole entry, the tested form may be a part): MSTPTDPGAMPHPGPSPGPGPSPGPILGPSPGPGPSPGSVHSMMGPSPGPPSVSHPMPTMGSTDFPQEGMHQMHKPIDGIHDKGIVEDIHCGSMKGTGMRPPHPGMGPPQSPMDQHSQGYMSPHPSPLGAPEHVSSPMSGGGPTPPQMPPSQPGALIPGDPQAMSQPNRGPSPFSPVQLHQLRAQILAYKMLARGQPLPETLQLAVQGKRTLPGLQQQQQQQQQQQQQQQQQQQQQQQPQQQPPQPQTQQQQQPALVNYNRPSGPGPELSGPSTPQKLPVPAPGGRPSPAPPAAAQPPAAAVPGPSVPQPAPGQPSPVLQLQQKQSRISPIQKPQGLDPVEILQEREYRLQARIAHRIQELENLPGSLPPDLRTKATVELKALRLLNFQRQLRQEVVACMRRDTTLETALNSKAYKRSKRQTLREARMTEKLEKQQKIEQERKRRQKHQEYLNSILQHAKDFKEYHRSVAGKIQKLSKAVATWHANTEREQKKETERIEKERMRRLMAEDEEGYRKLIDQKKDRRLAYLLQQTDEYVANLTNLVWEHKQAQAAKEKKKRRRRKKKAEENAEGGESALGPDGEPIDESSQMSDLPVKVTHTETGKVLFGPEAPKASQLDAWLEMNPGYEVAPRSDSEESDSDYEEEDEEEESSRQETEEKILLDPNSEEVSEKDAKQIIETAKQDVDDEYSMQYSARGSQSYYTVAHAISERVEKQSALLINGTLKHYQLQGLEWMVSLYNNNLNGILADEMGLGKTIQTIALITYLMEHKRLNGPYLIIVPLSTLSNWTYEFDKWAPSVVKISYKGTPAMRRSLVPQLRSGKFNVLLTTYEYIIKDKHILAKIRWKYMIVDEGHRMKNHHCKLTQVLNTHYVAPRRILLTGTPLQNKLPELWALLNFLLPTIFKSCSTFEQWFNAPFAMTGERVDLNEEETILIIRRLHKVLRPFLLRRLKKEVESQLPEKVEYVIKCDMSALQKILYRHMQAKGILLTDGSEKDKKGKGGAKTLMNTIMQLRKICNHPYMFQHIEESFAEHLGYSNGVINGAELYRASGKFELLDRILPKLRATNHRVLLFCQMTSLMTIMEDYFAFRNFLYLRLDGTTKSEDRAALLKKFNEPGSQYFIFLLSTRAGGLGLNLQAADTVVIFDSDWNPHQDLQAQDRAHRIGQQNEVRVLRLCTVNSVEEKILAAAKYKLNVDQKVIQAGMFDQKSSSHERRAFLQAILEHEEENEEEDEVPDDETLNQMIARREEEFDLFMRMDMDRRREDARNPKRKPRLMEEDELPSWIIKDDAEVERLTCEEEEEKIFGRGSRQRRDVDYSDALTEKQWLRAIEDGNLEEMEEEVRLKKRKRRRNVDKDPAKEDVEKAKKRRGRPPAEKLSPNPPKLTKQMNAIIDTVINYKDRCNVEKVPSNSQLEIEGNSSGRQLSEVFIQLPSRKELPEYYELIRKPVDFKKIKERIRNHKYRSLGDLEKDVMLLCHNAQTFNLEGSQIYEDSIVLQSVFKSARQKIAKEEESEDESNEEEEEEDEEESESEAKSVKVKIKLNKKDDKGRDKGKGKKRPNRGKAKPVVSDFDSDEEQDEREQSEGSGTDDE

Compound	DC50 [1] [nM]	SMARCA2 % Degradation @ 1 μM [1]	DC50 [2] [nM]	inhibition at 1 µM [2] [%]
C[C@@H]1CCN(c2cc(-c3ccccc3O)nnc2N)CCN1c1ccnc(C#CCN2CC[C@H]2CF)n1 [Compound P-263, o-{5-[(R)-4-(2-{3-[(S)-2-(fluoromethyl)-1-azetidinyl]-1-propynyl}-4-pyrimidinyl)-5-methyl-1,4-diazepan-1-yl]-6-amino-3-pyridazinyl}phenol]	50 to 500	++ (++=30-70%)	< 50	< 30
CCC1CN(CC#Cc2nccc(N3CCCN(c4cc(-c5ccccc5O)nnc4N)CC3)n2)c2ccccc2O1 (centres unmarked) [Compound P-360, 0-[6-amino-5-(4-{2-[3-(2-ethyl-3,4-dihydro-2H-1,4-benzoxazin-4-yl)-1-propynyl]-4-pyrimidinyl}-1,4-diazepan-1-yl)-3-pyridazinyl]phenol]	50 to 500	++ (++=30-70%)	50 to 500	30 to 70
Nc1nnc(-c2ccccc2O)cc1N1CC2CCC(C1)N2c1ccnc(C#CCn2nnc3ccccc32)n1 [Compound P-132, 2-(5-(8-(2-(3-(1H-benzo[d][1,2,3]triazol-1-yl)prop-1-yn-1-yl)pyrimidin-4-yl)-3,8-diazabicyclo| 3.2.1 |octan-3-yl)-6-aminopyridazin-3-yl)phenol]	500 to 5000	++ (++=30-70%)	500 to 5000	30 to 70
CC[C@@H](C)NCC#Cc1nccc(N2CCCN(c3cc(-c4ccccc4O)nnc3N)CC2)n1 [Compound P-274, 0-{5-[4-(2-{3-[(R)-1-methylpropylamino]-1-propynyl}-4-pyrimidinyl)-1,4-diazepan-1-yl]-6-amino-3-pyridazinyl}phenol]	50 to 500	+++ (+++=>70%)	50 to 500	30 to 70
Nc1nnc(-c2ccccc2O)cc1N1CCCN(c2ccnc(C#CCN[C@@H]3CCOC3)n2)CC1 [Compound P-273, 0-{5-[4-(2-{3-[(R)-tetrahydro-3-furylamino]-1-propynyl}-4-pyrimidinyl)-1,4-diazepan-1-yl]-6-amino-3-pyridazinyl}phenol]	50 to 500	+++ (+++=>70%)	50 to 500	30 to 70
Nc1nnc(-c2ccccc2O)cc1-c1cnn(C2CN(c3ccnc(C#CCn4ccnc4)n3)C2)c1 [Compound P-212, o-{6-amino-5-[1-(1-{2-[3-(1-imidazolyl)-1-propynyl]-4-pyrimidinyl}-3-azetidinyl)-4-pyrazolyl]-3-pyridazinyl} phenol]	50 to 500	++ (++=30-70%)	50 to 500	30 to 70
COC[C@H](C)NCC#Cc1nccc(N2CCCN(c3cc(-c4ccccc4O)nnc3N)CC2)n1 [Compound P-276, 0-{5-[4-(2-{3-[(S)-2-methoxy-1-methylethylamino]-1-propynyl}-4-pyrimidinyl)-1,4-diazepan-1-yl]-6-amino-3-pyridazinyl}phenol]	50 to 500	++ (++=30-70%)	50 to 500	30 to 70
C[C@H]1CN(c2ccnc(C#CCNC(=O)c3cc4ncccn4n3)n2)C[C@H](C)N1c1cc(-c2ccccc2O)nnc1N [Compound P-16, N-(3-(4-((3S,5S)-4-(3-amino-6-(2-hydroxyphenyl)pyridazin-4-y1)-3,5-dimethylpiperazin-1-yl)pyrimidin-2-yl)prop-2-yn-1-yl)pyrazolo[1,5-a]pyrimidine-2-carboxamide]	500 to 5000	+ (+=<30%)	500 to 5000	< 30
CNCC#Cc1nccc(N2CCCN(c3cc(-c4ccccc4O)nnc3N)CC2)n1 [Compound P-147, 2-(6-amino-5-(4-(2-(3-(methylamino)prop-1-yn-1-yl)pyrimidin-4-yl)-1,4-diazepan-1-yl)pyridazin-3-yl)phenol]	50 to 500	++ (++=30-70%)	50 to 500	30 to 70
Nc1nnc(-c2ccccc2O)cc1N1CCN(c2ccnc(C#CCNC(=O)c3noc4ccccc34)n2)CC1 [Compound P-54, N-(3-(4-(4-(3-amino-6-(2-hydroxyphenyl)pyridazin-4-yl)piperazin-1-yl)pyrimidin-2-yl)prop-2-yn-1-yl)benzo[d]isoxazole-3-carboxamide]	50 to 500	++ (++=30-70%)	50 to 500	30 to 70
CC1CCN(c2cc(-c3ccccc3O)nnc2N)CCN1c1ccnc(C#CCNC(=O)c2cc3ncccn3n2)n1 (centres unmarked) [Compound P-46, N-(3-(4-(4-(3-amino-6-(2-hydroxyphenyl)pyridazin-4-yl)-7-methyl-1,4-diazepan-1-yl)pyrimidin-2-yl)prop-2-yn-1-yl)pyrazolo[1,5-a]pyrimidine-2-carboxamide]	50 to 500	+++ (+++=>70%)	50 to 500	> 70
C[C@@H]1CCN(c2cc(-c3ccccc3O)nnc2N)CCN1c1ccnc(C#CCN2CC3CCC(C2)O3)n1 [Compound P-183, o-{5-[(R)-5-methyl-4-(2-{3-(8-oxa-3-azabicyclo[3.2.1]oct-3-yl)-1-propynyl}-4-pyrimidinyl)-1,4-diazepan-1-yl]-6-amino-3-pyridazinyl}phenol]	50 to 500	+++ (+++=>70%)	50 to 500	30 to 70
Nc1nnc(-c2ccccc2O)cc1N1CCCN(c2ccnc(C#CCNC(=O)OCC(F)(F)F)n2)CC1 [Compound P-339, 6-(o-hydroxyphenyl)-4-(4-{2-[3-(2,2,2-trifluoroethoxycarbonylamino)-1-propynyl]-4-pyrimidinyl}-1,4-diazepan-1-yl)-3-pyridazinamine]	50 to 500	+++ (+++=>70%)	50 to 500	> 70
CC(C)(C)OC(=O)NCC#Cc1nccc(N2CC3=C(C2)CN(c2cc(-c4ccccc4O)nnc2N)C3)n1 [Compound P-259, 3-(4-{7-[3-amino-6-(o-hydroxyphenyl)-4-pyridaziny1]-3,7-diazabicyclo[3.3.0]oct-1(5)-en-3-y1}-2-pyrimidinyl)-2-propynylamino-tert-butylformylate]	< 50	++ (++=30-70%)	< 50	30 to 70
CC1CN(c2cc(-c3ccccc3O)nnc2N)CCCN1c1ccnc(C#CCNC(=O)c2cc3ncccn3n2)n1 (centres unmarked) [Compound P-20, N-(3-(4-(4-(3-amino-6-(2-hydroxyphenyl)pyridazin-4-yl)-2-methyl-1,4-diazepan-1-yl)pyrimidin-2-yl)prop-2-yn-1-yl)pyrazolo[1,5-a]pyrimidine-2-carboxamide]	50 to 500	++ (++=30-70%)	50 to 500	30 to 70
Nc1nnc(-c2ccccc2O)cc1N1CC2(CCN(c3ccnc(C#CCNC(=O)c4cc5ncccn5n4)n3)CC2)C1 [Compound P-31, N-(3-(4-(2-(3-amino-6-(2-hydroxyphenyl)pyridazin-4-yl)-2,7-diazaspiro[3.5]nonan-7-yl)pyrimidin-2-yl)prop-2-yn-1-yl)pyrazolo[1,5-a]pyrimidine-2-carboxamide]	50 to 500	++ (++=30-70%)	50 to 500	30 to 70
C[C@@H]1CCN(c2cc(-c3ccccc3O)nnc2N)CCN1c1ccnc(C#CCN2CC(F)(F)C2)n1 [Compound P-252, o-{5-[(R)-4-{2-[3-(3,3-difluoro-1-azetidinyl)-1-propynyl]-4-pyrimidinyl}-5-methyl-1,4-diazepan-1-yl]-6-amino-3-pyridazinyl}phenol]	50 to 500	++ (++=30-70%)	50 to 500	30 to 70
C[C@@H]1CCN(c2cc(-c3ccccc3O)nnc2N)CCN1c1ccnc(C#CCN2CC3CC2(C)C3)n1 [Compound P-190, o-{5-[(R)-5-methyl-4-(2-{3-(1-methyl-2-azabicyclo[2.1.1]hex-2-yl)-1-propynyl}-4-pyrimidinyl)-1,4-diazepan-1-yl]-6-amino-3-pyridazinyl}phenol]	50 to 500	+++ (+++=>70%)	50 to 500	30 to 70
Nc1nnc(-c2ccccc2O)cc1N1CC2CCC(C1)N2c1ccnc(C#CCN2CCCCC2)n1 [Compound P-288, 0-(6-amino-5-{8-[2-(3-piperidino-1-propynyl)-4-pyrimidinyl]-3,8-diazabicyclo[3.2.1]oct-3-y1}-3-pyridazinyl)phenol]	50 to 500	++ (++=30-70%)	50 to 500	30 to 70
Nc1nnc(-c2ccccc2O)cc1N1CCCN(c2ccnc(C#CCn3cccn3)n2)CC1 [Compound P-149, 2-(5-(4-(2-(3-(1H-pyrazol-1-yl)prop-1-yn-1-yl)pyrimidin-4-yl)-1,4-diazepan-1-yl)-6-aminopyridazin-3-yl)phenol]	50 to 500		50 to 500	30 to 70
Nc1nnc(-c2ccccc2O)cc1N1CCN(c2ccnc(C#CCNC(=O)c3cnn4ccccc34)n2)CC1 [Compound P-65, N-(3-(4-(4-(3-amino-6-(2-hydroxyphenyl)pyridazin-4-yl)piperazin-1-yl)pyrimidin-2-yl)prop-2-yn-1-yl)pyrazolo[1,5-a]pyridine-3-carboxamide]	50 to 500	++ (++=30-70%)	50 to 500	30 to 70
